Experiments:
[1] = system: green foxtail; experiment: Test Example 4: herbicidal effect by soil treatment (Table 19, symbol G); type: in vivo, green foxtail (Setaria viridis)
Method in brief: (§1)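 Soil-surface application: an emulsion agent diluted with water to the predetermined dose is sprayed uniformly over seeds lying under roughly 1.5 cm of sterilized diluvial soil. Boxes stay in a greenhouse at 25° C. to 30° C. Three weeks later, each species is graded on previously defined criteria.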

[2] = system: barnyard grass; experiment: Test Example 5: herbicidal effect by foliage application, plastic box (Table 20, symbol H); type: in vivo, barnyard grass (Echinochloa crus-galli); conditions: foliage application, 320 g/ha
Method in brief: (§2)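 Sow seeds spot-wise in sterilized diluvial soil; cover with ~1.5 cm soil. Grow 14 days in greenhouse, 25° C. to 30° C. Spray foliage with emulsion diluted to predetermined amount. Rate effect after 3 weeks.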

[3] = system: Italian ryegrass; experiment: Test Example 4: herbicidal effect by soil treatment (Table 19, symbol K); type: in vivo, Italian ryegrass (Lolium multiflorum)
Method in brief: as §1

[4] = system: rice flat sedge; experiment: Test Example 3: herbicidal effect by foliage application, Wagner pot (Table 18, symbol E); type: in vivo, rice flat sedge (Cyperus iria)
Method in brief: (§3)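 Plants were sown in alluvial soil held under 0.1–0.5 cm standing water and grown 14 days in a greenhouse at 25–30 °C. An emulsifiable formulation, water-diluted to the set dose, was then sprayed onto the foliage, and effects were scored three weeks later using previously defined criteria.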

[5] = system: lambsquarters; experiment: Test Example 5: herbicidal effect by foliage application, plastic box (Table 20, symbol O); type: in vivo, lambsquarters (Chenopodium album); conditions: foliage application, 320 g/ha
Method in brief: as §2

[6] = system: barnyard grass; experiment: Test Example 4: herbicidal effect by soil treatment (Table 19, symbol H); type: in vivo, barnyard grass (Echinochloa crus-galli)
Method in brief: as §1

[7] = system: chickweed; experiment: Test Example 4: herbicidal effect by soil treatment (Table 19, symbol P); type: in vivo, common chickweed (Stellaria media)
Method in brief: as §1

[8] = system: southern crabgrass; experiment: Test Example 5: herbicidal effect by foliage application, plastic box (Table 20, symbol F); type: in vivo, southern crabgrass (Digitaria ciliaris); conditions: foliage application, 320 g/ha
Method in brief: as §2

[9] = system: Chinese sprangletop; experiment: Test Example 3: herbicidal effect by foliage application, Wagner pot (Table 18, symbol D); type: in vivo, chinese sprangletop (Leptochloa chinensis)
Method in brief: as §3

[10] = system: persian speedwell; experiment: Test Example 5: herbicidal effect by foliage application, plastic box (Table 20, symbol R); type: in vivo, Persian speedwell (Veronica persica); conditions: foliage application, 320 g/ha
Method in brief: as §2

[11] = system: wild oat; experiment: Test Example 5: herbicidal effect by foliage application, plastic box (Table 20, symbol I); type: in vivo, wild oat (Avena fatua); conditions: foliage application, 320 g/ha
Method in brief: as §2

[12] = system: lambsquarters; experiment: Test Example 4: herbicidal effect by soil treatment (Table 19, symbol O); type: in vivo, lambsquarters (Chenopodium album)
Method in brief: as §1

[13] = system: wild oat; experiment: Test Example 4: herbicidal effect by soil treatment (Table 19, symbol I); type: in vivo, wild oat (Avena fatua)
Method in brief: as §1

[14] = system: green foxtail; experiment: Test Example 5: herbicidal effect by foliage application, plastic box (Table 20, symbol G); type: in vivo, green foxtail (Setaria viridis); conditions: foliage application, 320 g/ha
Method in brief: as §2

[15] = system: barnyard grass; experiment: Test Example 3: herbicidal effect by foliage application, Wagner pot (Table 18, symbol H); type: in vivo, barnyard grass (Echinochloa crus-galli)
Method in brief: as §3

[16] = system: windgrass; experiment: Test Example 5: herbicidal effect by foliage application, plastic box (Table 20, symbol L); type: in vivo, windgrass (Apera spica-venti); conditions: foliage application, 320 g/ha
Method in brief: as §2

[17] = system: persian speedwell; experiment: Test Example 4: herbicidal effect by soil treatment (Table 19, symbol R); type: in vivo, Persian speedwell (Veronica persica)
Text: [Test Example 4] Herbicidal Effect Test by Soil Treatment
Sterilized diluvial soil was placed in a plastic box having a length of 21 cm, a width of 13 cm, and a depth of 7 cm. The seeds of each of southern crabgrass, green foxtail, barnyard grass, wild oat, blackgrass, Italian ryegrass, windgrass, velvetleaf, redroot pigweed, lambsquarters, chickweed, false cleavers, persian speedwell, corn, soybean, rice, wheat, beet, and rapeseed were sowed in a spot-like manner and covered with the soil having a thickness of about 1.5 cm. Subsequently, the emulsion agent of the compound of the present invention prepared according to Formulation Example 2 was diluted with water so as to achieve a predetermined herbicide amount, and the diluted emulsion agent was uniformly applied to the surface of the soil with a small-sized spray. The plastic box was placed in a greenhouse at 25° C. to 30° C. for growth of the plants. Three weeks after the herbicide application, the effect of the herbicide on each plant was evaluated according to the criteria of Test Example 1.

[18] = system: blackgrass; experiment: Test Example 5: herbicidal effect by foliage application, plastic box (Table 20, symbol J); type: in vivo, blackgrass (Alopecurus myosuroides); conditions: foliage application, 320 g/ha
Method in brief: as §2

[19] = system: velvetleaf; experiment: Test Example 5: herbicidal effect by foliage application, plastic box (Table 20, symbol M); type: in vivo, velvetleaf (Abutilon theophrasti); conditions: foliage application, 320 g/ha
Method in brief: as §2

[20] = system: blackgrass; experiment: Test Example 4: herbicidal effect by soil treatment (Table 19, symbol J); type: in vivo, blackgrass (Alopecurus myosuroides)
Method in brief: as §1

[21] = system: southern crabgrass; experiment: Test Example 4: herbicidal effect by soil treatment (Table 19, symbol F); type: in vivo, southern crabgrass (Digitaria ciliaris)
Method in brief: as §1

[22] = system: redroot pigweed; experiment: Test Example 4: herbicidal effect by soil treatment (Table 19, symbol N); type: in vivo, redroot pigweed (Amaranthus retroflexus); conditions: 320 g/ha
Method in brief: as §1

[23] = system: Italian ryegrass; experiment: Test Example 5: herbicidal effect by foliage application, plastic box (Table 20, symbol K); type: in vivo, Italian ryegrass (Lolium multiflorum); conditions: foliage application, 320 g/ha
Method in brief: as §2

[24] = system: velvetleaf; experiment: Test Example 4: herbicidal effect by soil treatment (Table 19, symbol M); type: in vivo, velvetleaf (Abutilon theophrasti)
Method in brief: as §1

[25] = system: chickweed; experiment: Test Example 5: herbicidal effect by foliage application, plastic box (Table 20, symbol P); type: in vivo, common chickweed (Stellaria media); conditions: foliage application, 320 g/ha, evaluated three weeks after application
Method in brief: as §2

[26] = system: redroot pigweed; experiment: Test Example 5: herbicidal effect by foliage application, plastic box (Table 20, symbol N); type: in vivo, redroot pigweed (Amaranthus retroflexus); conditions: foliage application, 320 g/ha, evaluated three weeks after application
Method in brief: as §2

[27] = amount of applied herbicide 320 g/ha
[28] = evaluated three weeks after application

With `COCCC(=O)Oc1c(C)nn(C)c(=O)c1-c1c(-c2ccc(F)cc2)sc2ccc(F)cc12` [2-003] the “herbicidal effect rating, G: green foxtail” value ([1]; 320 g/ha) was 5 (Herbicidal rate of 90% or more (almost completely withered)), the “effect on barnyard grass (H)” value ([2]; 3 weeks after application) was 5 (Herbicidal rate of 90% or more (almost completely withered)) and the “herbicidal effect rating, K: Italian ryegrass” value ([3]; 320 g/ha) was 5 (Herbicidal rate of 90% or more (almost completely withered)). For the same compound, the “herbicidal effect on E (rice flat sedge), rating 0-5” value ([4]; 320 g/ha) was 5 (Herbicidal rate of 90% or more (almost completely withered)), the “effect on lambsquarters (O)” value ([5]; 3 weeks after application) was 5 (Herbicidal rate of 90% or more (almost completely withered)) and the “herbicidal effect rating, H: barnyard grass” value ([6]; 320 g/ha) was 5 (Herbicidal rate of 90% or more (almost completely withered)). The “herbicidal effect rating, P: chickweed” value ([7]; 320 g/ha) was 3 (Herbicidal rate of 40% or more and less than 70%), the “effect on southern crabgrass (F)” value ([8]; 3 weeks after application) was 5 (Herbicidal rate of 90% or more (almost completely withered)) and the “herbicidal effect on D (Chinese sprangletop), rating 0-5” value ([9]; 320 g/ha) was 3 (Herbicidal rate of 40% or more and less than 70%). The “effect on persian speedwell (R)” value ([10]; 3 weeks after application) was 5 (Herbicidal rate of 90% or more (almost completely withered)), the “effect on wild oat (I)” value ([11]; 3 weeks after application) was 2 (Herbicidal rate of 20% or more and less than 40%) and the “herbicidal effect rating, O: lambsquarters” value ([12]; 320 g/ha) was 5 (Herbicidal rate of 90% or more (almost completely withered)). For the same compound, the “herbicidal effect rating, I: wild oat” value ([13]; 320 g/ha) was 0 (Herbicidal rate of 5% or less (almost no effect)), the “effect on green foxtail (G)” value ([14]; 3 weeks after application) was 5 (Herbicidal rate of 90% or more (almost completely withered)) and the “herbicidal effect on H (barnyard grass), rating 0-5” value ([15]; 320 g/ha) was 5 (Herbicidal rate of 90% or more (almost completely withered)). The “effect on windgrass (L)” value ([16]; 3 weeks after application) was 4 (Herbicidal rate of 70% or more and less than 90%), the “herbicidal effect rating, R: persian speedwell” value ([17]; 320 g/ha) was 4 (Herbicidal rate of 70% or more and less than 90%) and the “effect on blackgrass (J)” value ([18]; 3 weeks after application) was 4 (Herbicidal rate of 70% or more and less than 90%). For the same compound, the “effect on velvetleaf (M)” value ([19]; 3 weeks after application) was 5 (Herbicidal rate of 90% or more (almost completely withered)), the “herbicidal effect rating, J: blackgrass” value ([20]; 320 g/ha) was 3 (Herbicidal rate of 40% or more and less than 70%) and the “herbicidal effect rating, F: southern crabgrass” value ([21]; 320 g/ha) was 5 (Herbicidal rate of 90% or more (almost completely withered)). The “herbicidal effect rating, N: redroot pigweed” value [22] was 5 (Herbicidal rate of 90% or more (almost completely withered)), the “effect on Italian ryegrass (K)” value ([23]; 3 weeks after application) was 4 (Herbicidal rate of 70% or more and less than 90%) and the “herbicidal effect rating, M: velvetleaf” value ([24]; 320 g/ha) was 5 (Herbicidal rate of 90% or more (almost completely withered)).

In the case of `CCCC(=O)Oc1c(C)nn(C)c(=O)c1-c1c(-c2ccccc2)sc2ccc(C)cc12` [2-133], the “G: green foxtail, herbicidal effect rating” value [1, 27] is reported as 0 (Herbicidal rate of 5% or less (almost no effect)), the “herbicidal effect on H: barnyard grass” value [2, 28] is reported as 0 (Herbicidal rate of 5% or less (almost no effect)) and the “K: Italian ryegrass, herbicidal effect rating” value [3, 27] is reported as 0 (Herbicidal rate of 5% or less (almost no effect)). For the same compound, the “herbicidal effect on P: chickweed” value [25] was 5 (Herbicidal rate of 90% or more (almost completely withered)), the “herbicidal effect on E: rice flat sedge” value [4, 27] was 5 (Herbicidal rate of 90% or more (almost completely withered)) and the “herbicidal effect on O: lambsquarters” value [5, 28] was 4 (Herbicidal rate of 70% or more and less than 90%). The “H: barnyard grass, herbicidal effect rating” value [6, 27] was 0 (Herbicidal rate of 5% or less (almost no effect)), the “P: chickweed, herbicidal effect rating” value [7, 27] was 5 (Herbicidal rate of 90% or more (almost completely withered)) and the “herbicidal effect on F: southern crabgrass” value [8, 28] was 0 (Herbicidal rate of 5% or less (almost no effect)). For the same compound, the “herbicidal effect on D: Chinese sprangletop” value [9, 27] was 0 (Herbicidal rate of 5% or less (almost no effect)), the “herbicidal effect on R: persian speedwell” value [10, 28] was 2 (Herbicidal rate of 20% or more and less than 40%) and the “herbicidal effect on I: wild oat” value [11, 28] was 0 (Herbicidal rate of 5% or less (almost no effect)). The “O: lambsquarters, herbicidal effect rating” value [12, 27] was 5 (Herbicidal rate of 90% or more (almost completely withered)), the “I: wild oat, herbicidal effect rating” value [13, 27] was 0 (Herbicidal rate of 5% or less (almost no effect)) and the “herbicidal effect on G: green foxtail” value [14, 28] was 2 (Herbicidal rate of 20% or more and less than 40%). The “herbicidal effect on H: barnyard grass” value [15, 27] was 0 (Herbicidal rate of 5% or less (almost no effect)), the “herbicidal effect on L: windgrass” value [16, 28] was 0 (Herbicidal rate of 5% or less (almost no effect)) and the “R: persian speedwell, herbicidal effect rating” value [17, 27] was 0 (Herbicidal rate of 5% or less (almost no effect)). For the same compound, the “herbicidal effect on J: blackgrass” value [18, 28] was 0 (Herbicidal rate of 5% or less (almost no effect)), the “herbicidal effect on M: velvetleaf” value [19, 28] was 5 (Herbicidal rate of 90% or more (almost completely withered)) and the “J: blackgrass, herbicidal effect rating” value [20, 27] was 0 (Herbicidal rate of 5% or less (almost no effect)). For the same compound, the “F: southern crabgrass, herbicidal effect rating” value [21, 27] was 0 (Herbicidal rate of 5% or less (almost no effect)), the “herbicidal effect on K: Italian ryegrass” value [23, 28] was 3 (Herbicidal rate of 40% or more and less than 70%) and the “herbicidal effect on N: redroot pigweed” value [26] was 5 (Herbicidal rate of 90% or more (almost completely withered)). For the same compound, the “M: velvetleaf, herbicidal effect rating” value [24, 27] was 0 (Herbicidal rate of 5% or less (almost no effect)).

From US20230085307A1, “PYRIDAZINONE COMPOUND AND HERBICIDE” (NISSAN CHEMICAL CORPORATION, priority 2019, published 2023)
